Experimental data as given in patent US10723741B1, “DNA polymerase IIIC inhibitors and use thereof” (Acurx Pharmaceuticals, LLC, priority 2018, dated 2020).
Values after ≈ are worked out from the molar mass of the structure shown. Read-outs that look alike come from different tables or passages of the source.

Key:
Format in all cases: cell-based
[1] = test system: Enterococcus faecalis ATCC 29212; assay: Broth microdilution MIC, E. faecalis ATCC 29212; conditions: ATCC29212, broth microdilution, 37° C., 20 hours, read-out: MIC E. faecalis ATCC 29212
In short: (§1)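 Two-fold dilutions from 64 to 0.0625 μg/ml final, 1% DMSO, were inoculated at ~5.0×10^5 cfu/ml in the strain's test medium and kept 20 h at 37 °C in ambient atmosphere. Colonies were grown on MHA, with S. pneumoniae on blood agar under 5% CO2.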

[2] = test system: Staphylococcus aureus NRS384 (MRSA); assay: Broth microdilution MIC, S. aureus NRS384 (MRSA); conditions: Staphylococcus aureus, broth microdilution, 37° C., 20 hours
In short: as §1

[3] = test system: Streptococcus pneumoniae ATCC 49619; assay: Broth microdilution MIC, S. pneumoniae ATCC 49619; conditions: ATCC49619, broth microdilution, 37° C., 20 hours, read-out: MIC S. pneumoniae ATCC 49619
In short: as §1

[4] = test system: Staphylococcus aureus ATCC 29213 (MSSA); assay: Broth microdilution MIC, S. aureus ATCC 29213 (MSSA); conditions: broth microdilution, 37° C., 20 hours, read-out: MIC S. aureus ATCC 29213 (MSSA)
In short: as §1

[5] = test system: Enterococcus faecium ATCC 700221 (VRE); assay: Broth microdilution MIC, E. faecium ATCC 700221 (VRE); conditions: Enterococcus faecium, broth microdilution, 37° C., 20 hours
In short: as §1

[6] = test system: Escherichia coli ATCC 25922; assay: Broth microdilution MIC, E. coli ATCC 25922 (MHIIB w & w/o 4 mM EDTA); conditions: broth microdilution, 37° C., 20 hours; for MIC: Escherichia coli, ATCC25922, without EDTA, read-out: MIC E. coli ATCC 25922; for MIC E. coli ATCC 25922 + 4 mM EDTA: with 4 mM EDTA
In short: as §1

[7] = test system: Bacillus subtilis ATCC 6633; assay: Broth microdilution MIC, B. subtilis ATCC 6633; conditions: ATCC6633, broth microdilution, 37° C., 20 hours, read-out: MIC B. subtilis ATCC 6633
In short: as §1

[8] = read-out: MIC E. faecium ATCC 700221 (VRE)

Structure (SMILES) | MIC [1] | MIC ([2]; read-out: MIC NRS 384 (MRSA)) | MIC [3] | MIC [4] | MIC [5, 8] | MIC [6] | MIC E. coli ATCC 25922 + 4 mM EDTA [6] | MIC [7] | MIC ([2]; MHIIB, read-out: MIC against S. aureus NRS 384 (MRSA)) | MIC ([5]; MHIIB, read-out: MIC against E. faecium ATCC 700221 (VRE))
CCOCCc1nn(C)c2c(=O)[nH]c(NCc3ccc(Cl)c(Cl)c3)nc12 [Compound 49, 5-((3,4-dichlorobenzyl)amino)-3-(2-ethoxyethyl)-1-methyl-1H-pyrazolo[4,3-d]pyrimidin-7(6H)-one] | > 64 µg/mL | 8 µg/mL (≈ 20.2 µM) | 16 µg/mL (≈ 40.4 µM) | 16 µg/mL (≈ 40.4 µM) | 16 µg/mL (≈ 40.4 µM) | > 64 µg/mL | >64 µg/mL | 8 µg/mL (≈ 20.2 µM) | – | –
O=c1[nH]c(NCc2ccc(Cl)c(Cl)c2)nc2c(-c3ncco3)nn(CCOCCO)c12 [Compound 50, 5-((3,4-dichlorobenzyl)amino)-1-(2-(2-hydroxyethoxy)ethyl)-3-(oxazol-2-yl)-1H-pyrazolo[4,3-d]pyrimidin-7(6H)-one] | > 64 µg/mL | > 64 µg/mL | > 64 µg/mL | > 64 µg/mL | > 64 µg/mL | > 64 µg/mL | >64 µg/mL | > 64 µg/mL | – | –
N#Cc1nn(CCOCCO)c2c(=O)[nH]c(NCc3ccc(Cl)c(Cl)c3)nc12 [Compound 51, 5-((3,4-dichlorobenzyl)amino)-1-(2-(2-hydroxyethoxy)ethyl)-7-oxo-6,7-dihydro-1H-pyrazolo[4,3-d]pyrimidine-3-carbonitrile] | 2 µg/mL (≈ 4.73 µM) | 2 µg/mL (≈ 4.73 µM) | 2 µg/mL (≈ 4.73 µM) | 2 µg/mL (≈ 4.73 µM) | 0.5 µg/mL (≈ 1.18 µM) | > 64 µg/mL | >64 µg/mL | 1 µg/mL (≈ 2.36 µM) | – | –
O=c1[nH]c(NCc2ccc(Cl)c(Cl)c2)nc2c(Br)nn(CCOCCO)c12 [Compound 52, 3-bromo-5-((3,4-dichlorobenzyl)amino)-1-(2-(2-hydroxyethoxy)ethyl)-1H-pyrazolo[4,3-d]pyrimidin-7(6H)-one] | 4 µg/mL (≈ 8.38 µM) | 4 µg/mL (≈ 8.38 µM) | 16 µg/mL (≈ 33.5 µM) | 2 µg/mL (≈ 4.19 µM) | 2 µg/mL (≈ 4.19 µM) | > 64 µg/mL | >64 µg/mL | 1 µg/mL (≈ 2.1 µM) | – | –
Cn1nc(F)c2nc(NCc3ccc(Cl)c(Cl)c3)[nH]c(=O)c21 [Compound 53, 5-((3,4-dichlorobenzyl)amino)-3-fluoro-1-methyl-1H-pyrazolo[4,3-d]pyrimidin-7(6H)-one] | 2 µg/mL (≈ 5.85 µM) | 0.5 µg/mL (≈ 1.46 µM) | 2 µg/mL (≈ 5.85 µM) | 0.5 µg/mL (≈ 1.46 µM) | 0.5 µg/mL (≈ 1.46 µM) | > 64 µg/mL | 64 µg/mL | 0.5 µg/mL (≈ 1.46 µM) | ≤ 1 µg/mL | ≤ 1 µg/mL
O=c1[nH]c(NCc2ccc(Cl)c(Cl)c2)nc2c(F)n[nH]c12 [Compound 54, 5-[(3,4-Dichlorophenyl)methylamino]-3-fluoro-1,6-dihydropyrazolo[4,3-d]pyrimidin-7-one] | 16 µg/mL (≈ 48.8 µM) | 8 µg/mL (≈ 24.4 µM) | 32 µg/mL (≈ 97.5 µM) | 8 µg/mL (≈ 24.4 µM) | 4 µg/mL (≈ 12.2 µM) | > 64 µg/mL | >64 µg/mL | 4 µg/mL (≈ 12.2 µM) | – | –
O=c1[nH]c(NCc2ccc(Cl)c(Cl)c2)nc2c(Cl)n[nH]c12 [Compound 55, 3-Chloro-5-[(3,4-dichlorophenyl)methylamino]-1,6-dihydropyrazolo[4,3-d]pyrimidin-7-one] | 8 µg/mL (≈ 23.2 µM) | 4 µg/mL (≈ 11.6 µM) | 8 µg/mL (≈ 23.2 µM) | 4 µg/mL (≈ 11.6 µM) | 4 µg/mL (≈ 11.6 µM) | > 64 µg/mL | 64 µg/mL | 2 µg/mL (≈ 5.8 µM) | – | –
Cl.O=c1[nH]c(NCc2ccc(Cl)c(Cl)c2)nc2cnn(CCN3CCOCC3)c12 [Compound 57, 5-((3,4-dichlorobenzyl)amino)-1-(2-morpholinoethyl)-1H-pyrazolo[4,3-d]pyrimidin-7(6H)-one hydrochloride] | 4 µg/mL | 2 µg/mL | 2 µg/mL | 2 µg/mL | 1 µg/mL | > 64 µg/mL | >64 µg/mL | 1 µg/mL | – | –
CN1CCN(CCn2ncc3nc(NCc4ccc(Cl)c(Cl)c4)[nH]c(=O)c32)CC1 [Compound 58, 5-((3,4-Dichlorobenzyl)amino)-1-(2-(4-methylpiperazin-1-yl)ethyl)-1H-pyrazolo[4,3-d]pyrimidin-7(6H)-one] | 8 µg/mL (≈ 18.3 µM) | 8 µg/mL (≈ 18.3 µM) | 4 µg/mL (≈ 9.17 µM) | 16 µg/mL (≈ 36.7 µM) | 4 µg/mL (≈ 9.17 µM) | > 64 µg/mL | >64 µg/mL | 2 µg/mL (≈ 4.58 µM) | – | –
O=c1[nH]c(NCc2ccc(Cl)c(Cl)c2)nc2cnn(CCN3CCS(=O)(=O)CC3)c12 [Compound 59, 5-((3,4-Dichlorobenzyl)amino)-1-(2-(1,1-dioxidothiomorpholino)ethyl)-1H-pyrazolo[4,3-d]pyrimidin-7(6H)-one] | 8 µg/mL (≈ 17 µM) | 8 µg/mL (≈ 17 µM) | 4 µg/mL (≈ 8.49 µM) | 8 µg/mL (≈ 17 µM) | 2 µg/mL (≈ 4.24 µM) | > 64 µg/mL | >64 µg/mL | 4 µg/mL (≈ 8.49 µM) | – | –
CN1CCN(CCn2ncc3nc(NCc4ccc(Cl)c(Cl)c4)[nH]c(=O)c32)CC1=O [Compound 60, 5-((3,4-Dichlorobenzyl)amino)-1-(2-(4-methyl-3-oxopiperazin-1-yl)ethyl)-1H-pyrazolo[4,3-d]pyrimidin-7(6H)-one] | 8 µg/mL (≈ 17.8 µM) | 8 µg/mL (≈ 17.8 µM) | 4 µg/mL (≈ 8.88 µM) | 8 µg/mL (≈ 17.8 µM) | 2 µg/mL (≈ 4.44 µM) | > 64 µg/mL | >64 µg/mL | 4 µg/mL (≈ 8.88 µM) | – | –
CNCCn1ncc2nc(NCc3ccc(Cl)c(Cl)c3)[nH]c(=O)c21 [Compound 61, 5-((3,4-Dichlorobenzyl)amino)-1-(2-(methylamino)ethyl)-1H-pyrazolo[4,3-d]pyrimidin-7(6H)-one] | 32 µg/mL (≈ 87.1 µM) | 64 µg/mL (≈ 174 µM) | 16 µg/mL (≈ 43.6 µM) | 64 µg/mL (≈ 174 µM) | 16 µg/mL (≈ 43.6 µM) | > 64 µg/mL | >64 µg/mL | 8 µg/mL (≈ 21.8 µM) | – | –
CC(C)(C)NCCn1ncc2nc(NCc3ccc(Cl)c(Cl)c3)[nH]c(=O)c21 [Compound 62, 1-[2-(tert-Butylamino)ethyl]-5-[(3,4-dichlorophenyl)methylamino]-6H-pyrazolo[4,3-d]pyrimidin-7-one] | 8 µg/mL (≈ 19.5 µM) | 16 µg/mL (≈ 39.1 µM) | 4 µg/mL (≈ 9.77 µM) | 16 µg/mL (≈ 39.1 µM) | 8 µg/mL (≈ 19.5 µM) | > 64 µg/mL | 32 µg/mL | 4 µg/mL (≈ 9.77 µM) | – | –
NCCn1ncc2nc(NCc3ccc(Cl)c(Cl)c3)[nH]c(=O)c21 [Compound 63, 1-(2-Aminoethyl)-5-[(3,4-dichlorophenyl)methylamino]-6H-pyrazolo[4,3-d]pyrimidin-7-one] | 32 µg/mL (≈ 90.6 µM) | 64 µg/mL (≈ 181 µM) | 8 µg/mL (≈ 22.6 µM) | 64 µg/mL (≈ 181 µM) | 32 µg/mL (≈ 90.6 µM) | > 64 µg/mL | >64 µg/mL | 8 µg/mL (≈ 22.6 µM) | – | –
CC(=O)N1CCN(CCn2ncc3nc(NCc4ccc(Cl)c(Cl)c4)[nH]c(=O)c32)CC1.Cl [Compound 64, 1-(2-(4-Acetylpiperazin-1-yl)ethyl)-5-((3,4-dichlorobenzyl)amino)-1H-pyrazolo[4,3-d]pyrimidin-7(6H)-one hydrochloride] | 4 µg/mL | 8 µg/mL | 4 µg/mL | 8 µg/mL | 2 µg/mL | > 64 µg/mL | 64 µg/mL | 2 µg/mL | – | –
Cl.O=c1[nH]c(NCc2ccc(Cl)c(Cl)c2)nc2cnn(CCN3CCC(O)CC3)c12 [Compound 65, 5-((3,4-Dichlorobenzyl)amino)-1-(2-(4-hydroxypiperidin-1-yl)ethyl)-1H-pyrazolo[4,3-d]pyrimidin-7(6H)-one hydrochloride] | 8 µg/mL | 16 µg/mL | 4 µg/mL | 16 µg/mL | 8 µg/mL | > 64 µg/mL | 64 µg/mL | 4 µg/mL | – | –
Cl.NC(=O)C1CCN(CCn2ncc3nc(NCc4ccc(Cl)c(Cl)c4)[nH]c(=O)c32)CC1 [Compound 66, 1-(2-(5-((3,4-Dichlorobenzyl)amino)-7-oxo-6,7-dihydro-1H-pyrazolo[4,3-d]pyrimidin-1-yl)ethyl)piperidine-4-carboxamide hydrochloride hydrochloride] | 32 µg/mL | 32 µg/mL | 8 µg/mL | 64 µg/mL | 16 µg/mL | > 64 µg/mL | 64 µg/mL | 8 µg/mL | – | –
CN(C)C1CCN(CCn2ncc3nc(NCc4ccc(Cl)c(Cl)c4)[nH]c(=O)c32)CC1.Cl.Cl [Compound 67, 5-((3,4-Dichlorobenzyl)amino)-1-(2-(4-(dimethylamino)piperidin-1-yl)ethyl)-1H-pyrazolo[4,3-d]pyrimidin-7(6H)-one dihydrochloride] | 16 µg/mL | 32 µg/mL | 8 µg/mL | 32 µg/mL | 16 µg/mL | > 64 µg/mL | >64 µg/mL | 8 µg/mL | – | –
